Reference: paper PMC5884648, “Relationship between the agonist activity of synthetic ligands of TRAIL-R2 and their cell surface binding modes” (Oncotarget, 2018)
*1 amine or outer side, *2 acyl side, *3 side chain or, on linkers, in order; H or OH if unused. Where a SMILES comes first, the peptide text is derived from it. Bridges are numbered along the chain shown (N, C = ends). Roman numbers before positions name the chains, in order. X1 = CN(CCCC(=O)NC(CCC(=O)[*:1])CCC(=O)[*:2])C(=O)c1ccccc1-c1c2ccc(=N)c(S(=O)(=O)O)c-2oc2c(S(=O)(=O)O)c(N)ccc12; X2 = NC(CCC(=O)[*:1])CCC(=O)[*:2]

Columns and labels:
[1] = test system: Jurkat cells; experiment: Cell viability MTS assay, Jurkat; assay type: cell-based, human; conditions: 24 hours
Protocol: (§1) BJAB, Jurkat and HCT116 cells (10^5 cells/well) were cultured in 100 µL of culture medium in 96-flat bottom well plates. The next day, cells were treated with the indicated concentrations of the different TRAILmin/DR5 peptides. After 24 hours of treatment cell viability measurement was performed by the MTS assay according to the manufacturer specification (Promega Corporation, Madison, WI, USA).

[2] = test system: BJAB cells; experiment: Cell viability MTS assay, BJAB; assay type: cell-based, human; conditions: 24 hours
Protocol: as §1

[3] = test system: HCT116 cells; experiment: Cell viability MTS assay, HCT116; assay type: cell-based, human; conditions: 24 hours
Protocol: as §1

[4] = biological target: T1, human TRAIL-R2 (Homo sapiens, UniProt O14763); experiment: Surface plasmon resonance on sensor-immobilized TRAIL-R2; assay type: binding; conditions: for koff / kon: 25° C, Langmuir model
T1 construct: purchased Enzo Life Sciences
T1 sequence (O14763 56-440): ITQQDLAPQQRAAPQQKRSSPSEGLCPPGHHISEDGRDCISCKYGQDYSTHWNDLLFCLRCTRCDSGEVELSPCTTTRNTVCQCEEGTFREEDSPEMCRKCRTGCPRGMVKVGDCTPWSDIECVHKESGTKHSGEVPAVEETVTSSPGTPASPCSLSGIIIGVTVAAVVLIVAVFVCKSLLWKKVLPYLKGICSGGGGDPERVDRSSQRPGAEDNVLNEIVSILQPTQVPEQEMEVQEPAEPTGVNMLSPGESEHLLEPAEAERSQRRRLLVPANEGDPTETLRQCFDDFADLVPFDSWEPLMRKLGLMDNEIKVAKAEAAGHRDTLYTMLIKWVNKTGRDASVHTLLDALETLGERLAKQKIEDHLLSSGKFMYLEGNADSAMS
Protocol: SPR assays were performed on a Biacore T200™, at 25° C. The running buffer was HBS-EP [10 mM HEPES (pH 7.4) containing 0.15 M NaCl, 3.4 mM EDTA and 0.005% (v/v) Tween P20]. The human TRAIL-R2 (Enzo Life Sciences, Farmingdale, NY, USA) receptor was immobilized on a sCM5 sensor chip (GE Healthcare) using the standard amine coupling procedure. The receptors were diluted in 10 mM acetate buffer (pH 5.0) at a concentration of 5 μg/mL. The TRAIL-R2 immobilization level on the sensor chip was 430 RU. Peptides were injected at a flow rate of 5 μL/min for 120 s and allowed to dissociate for an additional 420 s. Surfaces were then regenerated for 5 s with 25 mM HCl. All binding curves were double-referenced (i.e. subtraction of the data of the empty flow cell followed by the subtraction of the data from a running buffer injection cycle).
(§2) Double-referenced SPR binding curves sets were fitted globally using the BIAevaluation 4.1.1 (GE Healthcare Biacore) or TraceDrawer (Ridgeview Diagnostics AB, Uppsala, Sweden) softwares. The signal recorded with the LigandTracer on an empty spot or slide was subtracted from that recorded on cell-carrying slides. The resulting binding curves were analyzed by kinetic distribution analysis using the tool Interaction Map (Ridgeview Diagnostics AB, Uppsala, Sweden). Interaction Map decomposes the kinetic curve recorded for the binding of a homogeneous ligand to a heterogeneous group of targets into its different components. Results are represented as interaction maps (kon versus koff, log scale), where the color of each populated area represents its degree of contribution to the kinetic curve (red = high contribution, blue = low contribution).

[5] = biological target: T2, TRAIL-R2 expressed on HCT116 cells (Homo sapiens, UniProt O14763); experiment: LigandTracer real time binding on living HCT116 cells; conditions: HCT116 cells expressing TRAIL-R2
T2 construct: we used BJAB, HCT116 and Jurkat that express a natural level of TRAIL-R2 receptors; endogenous in cells; host or cells: HCT116
T2 sequence (O14763 56-440): as above
Protocol: The adherent cells HCT116-TRAIL-R2-DEF and HCT116 cells were directly plated on glass slides (Ø20 mm) (10^6 cells/well). The cells in suspension (BJAB and BJAB-TRAIL-R2-DEF) were covalently adhered to glass slides coated with poly-L-lysine (0.1% v/v) (Sigma Aldrich, Saint Louis, MO, USA). The adhesion was strong enough for measurement during 10h. After 24 hours, the slides were fixed with superglue at different locations of a Petri dish, which was inserted in the LigandTracer Green instrument (Ridgeview Instrument AB, Uppsala, Sweden). An empty spot or empty glass slide fixed to the Petri dish was used to record the background signal. This set-up allowed the simultaneous monitoring of the binding of a given peptide to different cell-carrying glass slides fixed to the dish. […] The fluorescence signal is recorded over time when the slide is out of the solution, and therefore corresponds to the amount of bound peptide. […]
Double-referenced SPR binding curves sets were fitted globally using the BIAevaluation 4.1.1 (GE Healthcare Biacore) or TraceDrawer (Ridgeview Diagnostics AB, Uppsala, Sweden) softwares. The signal recorded with the LigandTracer on an empty spot or slide was subtracted from that recorded on cell-carrying slides. The resulting binding curves were analyzed by kinetic distribution analysis using the tool Interaction Map (Ridgeview Diagnostics AB, Uppsala, Sweden). […]

[6] = biological target: TRAIL-R2 expressed on BJAB cells (Homo sapiens, UniProt O14763); experiment: LigandTracer real time binding on living BJAB cells; set-up: expressed in transfected cells
Chain of TRAIL-R2 expressed on BJAB cells (O14763 56-440): as above
Protocol: The adherent cells HCT116-TRAIL-R2-DEF and HCT116 cells were directly plated on glass slides (Ø20 mm) (10^6 cells/well). The cells in suspension (BJAB and BJAB-TRAIL-R2-DEF) were covalently adhered to glass slides coated with poly-L-lysine (0.1% v/v) (Sigma Aldrich, Saint Louis, MO, USA). The adhesion was strong enough for measurement during 10h. After 24 hours, the slides were fixed with superglue at different locations of a Petri dish, which was inserted in the LigandTracer Green instrument (Ridgeview Instrument AB, Uppsala, Sweden). An empty spot or empty glass slide fixed to the Petri dish was used to record the background signal. This set-up allowed the simultaneous monitoring of the binding of a given peptide to different cell-carrying glass slides fixed to the dish. Three mL of solution (culture medium without or with fluorescent peptide) were added to the dish. In the LigandTracer instrument, the dish is tilted and rotates. Consequently the 3 mL solution covers only the lower part of the dish and each cell-carrying slide is alternatively in contact and out of contact with the solution (at intervals of 8 to 16 s). The fluorescence signal is recorded over time when the slide is out of the solution, and therefore corresponds to the amount of bound peptide. The solution in the dish was initially the culture medium (∼30 min) to provide a stable base line. The fluorescent peptide was then added in increasing doses (10, 30 and 90 nM) every two to three hours. Finally the peptide-containing sample was replaced with fresh medium and the dissociation of the peptide from the cells was followed overnight. The measurements were conducted at room temperature (approximately 20° C).
as §2

[7] = biological target: T3, TRAIL-R2 on BJAB cells (Homo sapiens, UniProt O14763); experiment: Flow cytometry staining with fluorescent peptides, BJAB; assay type: binding
T3 construct: expressed in transfected cells
T3 sequence (O14763 56-440): as above
Protocol: (§3) 10^6 cells were washed in PBS containing 2% FCS and then incubated at 4° C for 30 min with an anti-TRAIL-R2 antibody (clone BK9 Diaclone, Besançon, France) according to concentration recommended by the manufacturer or with fluorescent peptides at the concentration of 1 µM. After two washes in PBS-2% FBS, TRAIL-R2 expression was monitored by flow cytometry (Guava easyCyte™, Merck Milipore, Darmstadt, Germany) and data were analyzed with InCyte Software (Merck Milipore).

[8] = biological target: T4, TRAIL-R2 on HCT116 cells (Homo sapiens, UniProt O14763); experiment: Flow cytometry staining with fluorescent peptides, HCT116; assay type: binding
T4 construct: we used BJAB, HCT116 and Jurkat that express a natural level of TRAIL-R2 receptors; endogenous in cells; host or cells: HCT116
T4 sequence (O14763 56-440): as above
Protocol: as §3

[9] = TRAIL-R2 surface 1, one:one interaction model
[10] = TRAIL-R2 surface 2, one:one interaction model

SMILES	apoptosis induction in Jurkat cells [1]	apoptosis induction in BJAB cells [2]	apoptosis induction in HCT116 cells [3]	koff ([4]; SPR) [s⁻¹]	kon ([4]; SPR) [M⁻¹ s⁻¹]	Rmax [4, 9]	Rmax [4, 10]	KD of 2d smaller than KD of 1d ([4]; SPR, ratio of KD 1d to 2d)	cell surface binding [5]	cell surface binding ([6]; BJAB cells deficient for TRAIL-R2)	cell surface binding ([6]; BJAB cells expressing TRAIL-R2)	fluorescent signal reached ([6]; BJAB cells that expressed TRAIL-R2, 10, 30 and (f1d) 90 nM)	binding by flow cytometry ([7]; BJAB cells deficient for TRAIL-R2, peptide 1 µM)	binding by flow cytometry ([7]; BJAB cells expressing TRAIL-R2, peptide 1 µM)	binding by flow cytometry ([8]; HCT116 cells deficient for TRAIL-R2, peptide 1 µM)	binding by flow cytometry ([8]; HCT116 cells expressing TRAIL-R2, peptide 1 µM)
CC[C@H](C)[C@@H]1NC(=O)[C@H](CCCNC(=N)N)NC(=O)[C@H](CC(N)=O)NC(=O)[C@H](CC(=O)O)NC(=O)[C@H](CC(C)C)NC(=O)[C@@H](NC(=O)[C@H](CC(=O)O)NC(=O)[C@H](Cc2c[nH]c3ccccc23)NC(C)=O)CSSC[C@@H](C(=O)N[C@H](C(=O)N[C@@H](CCCCNC(=O)CCC(N)CCC(=O)NCCCC[C@H](NC(=O)[C@@H](NC(=O)[C@@H]2CSSC[C@H](NC(=O)[C@H](CC(=O)O)NC(=O)[C@H](Cc3c[nH]c4ccccc34)NC(C)=O)C(=O)N[C@@H](CC(C)C)C(=O)N[C@@H](CC(=O)O)C(=O)N[C@@H](CC(N)=O)C(=O)N[C@@H](CCCNC(=N)N)C(=O)N[C@@H]([C@@H](C)CC)C(=O)NCC(=O)N[C@@H](CCCNC(=N)N)C(=O)N[C@@H](CCCNC(=N)N)C(=O)N[C@@H](CCC(N)=O)C(=O)N2)C(C)C)C(=O)N[C@@H](CC(C)C)C(N)=O)C(=O)N[C@@H](CC(C)C)C(N)=O)C(C)C)NC(=O)[C@H](CCC(N)=O)NC(=O)[C@H](CCCNC(=N)N)NC(=O)[C@H](CCCNC(=N)N)NC(=O)CNC1=O (stereo partly drawn) [1d] (I: Ac-WDCLDNRIGRRQCVKL-NH2 / II: Ac-WDCLDNRIGRRQCVKL-NH2; disulfide I:3-I:13, II:3-II:13; linker I:15-II:15 via X2; N-terminus and C-terminus assumed)	strong resistance	underwent apoptosis	strong resistance	0.0014	28000	38	13									
CC[C@H](C)[C@@H]1NC(=O)[C@H](CCCNC(=N)N)NC(=O)[C@H](CC(N)=O)NC(=O)[C@H](CC(=O)O)NC(=O)[C@H](CC(C)C)NC(=O)[C@@H](NC(=O)[C@H](CC(=O)O)NC(=O)[C@H](Cc2c[nH]c3ccccc23)NC(C)=O)CSSC[C@@H](C(=O)N[C@H](C(=O)N[C@@H](CCCNC(=N)N)C(=O)N[C@@H](CC(C)C)C(N)=O)C(C)C)NC(=O)[C@H](CCC(N)=O)NC(=O)[C@H](CCCNC(=N)N)NC(=O)[C@H](CCCCNC(=O)CCC(N)CCC(=O)NCCCC[C@@H]2NC(=O)CNC(=O)[C@H]([C@@H](C)CC)NC(=O)[C@H](CCCNC(=N)N)NC(=O)[C@H](CC(N)=O)NC(=O)[C@H](CC(=O)O)NC(=O)[C@H](CC(C)C)NC(=O)[C@@H](NC(=O)[C@H](CC(=O)O)NC(=O)[C@H](Cc3c[nH]c4ccccc34)NC(C)=O)CSSC[C@@H](C(=O)N[C@H](C(=O)N[C@@H](CCCNC(=N)N)C(=O)N[C@@H](CC(C)C)C(N)=O)C(C)C)NC(=O)[C@H](CCC(N)=O)NC(=O)[C@H](CCCNC(=N)N)NC2=O)NC(=O)CNC1=O (stereo partly drawn) [2d] (I: Ac-WDCLDNRIGKRQCVRL-NH2 / II: Ac-WDCLDNRIGKRQCVRL-NH2; disulfide I:3-I:13, II:3-II:13; linker I:10-II:10 via X2; N-terminus and C-terminus assumed)	strong resistance	underwent apoptosis	strong resistance	0.00018	1.5e+06	33	12	approximately 400 fold								
CC[C@H](C)[C@@H]1NC(=O)[C@H](CCCNC(=N)N)NC(=O)[C@H](CC(N)=O)NC(=O)[C@H](CC(=O)O)NC(=O)[C@H](CC(C)C)NC(=O)[C@@H](NC(=O)[C@H](CC(=O)O)NC(=O)[C@H](Cc2c[nH]c3ccccc23)NC(C)=O)CSSC[C@@H](C(=O)N[C@H](C(=O)N[C@@H](CCCCNC(=O)CCC(CCC(=O)NCCCC[C@H](NC(=O)[C@@H](NC(=O)[C@@H]2CSSC[C@H](NC(=O)[C@H](CC(=O)O)NC(=O)[C@H](Cc3c[nH]c4ccccc34)NC(C)=O)C(=O)N[C@@H](CC(C)C)C(=O)N[C@@H](CC(=O)O)C(=O)N[C@@H](CC(N)=O)C(=O)N[C@@H](CCCNC(=N)N)C(=O)N[C@@H]([C@@H](C)CC)C(=O)NCC(=O)N[C@@H](CCCNC(=N)N)C(=O)N[C@@H](CCCNC(=N)N)C(=O)N[C@@H](CCC(N)=O)C(=O)N2)C(C)C)C(=O)N[C@@H](CC(C)C)C(N)=O)NC(=O)CCCN(C)C(=O)c2ccccc2-c2c3ccc(=N)c(S(=O)(=O)O)c-3oc3c(S(=O)(=O)O)c(N)ccc23)C(=O)N[C@@H](CC(C)C)C(N)=O)C(C)C)NC(=O)[C@H](CCC(N)=O)NC(=O)[C@H](CCCNC(=N)N)NC(=O)[C@H](CCCNC(=N)N)NC(=O)CNC1=O (stereo partly drawn) [f1d] (I: Ac-WDCLDNRIGRRQCVKL-NH2 / II: Ac-WDCLDNRIGRRQCVKL-NH2; disulfide I:3-I:13, II:3-II:13; linker I:15-II:15 via X1; N-terminus and C-terminus assumed)		induced apoptosis	scarcely induced their apoptosis	0.0014	22000				bound weakly	weak signals	strong binding	> 25	not	bound	not	bound
